Like-named read-outs stand apart in the source and are kept apart here.
Assays:
[1] = Example 1 urinary pharmacokinetics after intranasal administration; assay type: in vivo, human; conditions: healthy subjects, single intranasal 160 mg cocaine HCl; for CL renal / dose excreted: human, urine, 160 mg; for CL renal: inhaled or intranasal; for dose excreted: other: intranasal
Experimental: A single dose of a pharmaceutical composition was administered to both nostrils using cottonoid pledgets. […] Each pledget absorbed approximately 1 mL of pharmaceutical composition (i.e., 40 mg cocaine hydrochloride). Two soaked pledgets were placed into each nasal cavity of the subject and against the anterior septum for 20 minutes; thus, a total dose of 160 mg of cocaine hydrochloride was administered.
Urine samples were collected pre-dose and at the following intervals from the start of intranasal application of the pharmaceutical composition: 0-2 hours, 2-4 hours, 4-8 hours, and 8-12 hours. […] A 25-μL aliquot of each urine sample was processed by liquid-liquid extraction.
Urinary pharmacokinetic parameters were analyzed using noncompartmental methods.

[2] = Example 2 urinary pharmacokinetics, normal renal function vs severe renal impairment; conditions: for CL renal: human, 160 mg; for 0 to 32 hour urinary recovery (geometric mean) / 0 to 32 hour urinary recovery (mean) / 0 to 32 hour urinary recovery (median): metabolites as cocaine equivalents
Experimental: For the urine analysis of cocaine, BE, and EME, individual urinary recoveries for each analyte were determined over each collection interval as the product of the urine concentration times the urine volume. The total recoveries were determined as the sum of the recoveries over all the intervals. Total urinary recoveries were also expressed as the percentage of the administered dose, after correction for the molecular weight of each analyte. The renal clearances of cocaine, BE, and EME were determined as the urinary recovery (in μg) divided by the plasma AUC over the same time interval (the longest period for which both plasma and urine measurements were available).
Urine was collected prior to dosing and from 0-2, 2-4, 4-8, 8-12, 12-24, and 24-32 hours after the beginning of dose application. […] Testing methods used were consistent with those used by inVentiv Health Clinical Lab, Inc., Miami, Fla., U.S.A. Urinary pharmacokinetic parameters included total urinary recovery (μg), urinary recovery as a percentage of dose, and CLr.

[3] = Example 3 plasma pharmacokinetics, normal hepatic function vs hepatic impairment; conditions: for AUC(0-t) / AUC(0-inf): both, human, plasma, inhaled or intranasal, 160 mg, single intranasal 160 mg cocaine HCl
[4] = urine 0-12 h, metabolites as cocaine equivalents
[5] = normal renal function, single intranasal 160 mg cocaine HCl
[6] = severe renal impairment, single intranasal 160 mg cocaine HCl

COC(=O)[C@H]1[C@@H](OC(=O)c2ccccc2)C[C@@H]2CC[C@H]1N2C [Cocaine, cocaine, reference compound]
Total Urinary Recovery (Geometric mean) [1, 4]: 96.5 µg
Total Urinary Recovery (Mean) [1, 4]: 117 µg
Total Urinary Recovery (Median) [1, 4]: 114 µg
CL renal ([1]; read-out: Renal Clearance (Geometric mean) (converted)): 37.2 mL/min
CL renal ([1]; read-out: Renal Clearance (Mean) (converted)): 47.2 mL/min
CL renal ([1]; read-out: Renal Clearance (Median) (converted)): 42.7 mL/min
dose excreted ([1]; urine 0-12 h, metabolites as cocaine equivalents, read-out: Urinary Recovery (Geometric mean)): 0.0603%
dose excreted ([1]; urine 0-12 h, metabolites as cocaine equivalents, read-out: Urinary Recovery (Mean)): 0.0729%
dose excreted ([1]; urine 0-12 h, metabolites as cocaine equivalents, read-out: Urinary Recovery (Median)): 0.0714%
CL renal ([2]; both, urine, inhaled or intranasal, Renal Clearance, CLr (geometric mean), normal renal function, single intranasal 160 mg cocaine HCl): 26.8 mL/min
CL renal ([2]; both, urine, inhaled or intranasal, Renal Clearance, CLr (geometric mean), severe renal impairment, single intranasal 160 mg cocaine HCl): 17.3 mL/min
CL renal ([2]; both, urine, other: intranasal (drug-soaked pledgets in the nasal cavity), renal clearance, range observed, renally impaired patients, 32 hours from administration): 8.8 to 31.9 mL/min
CL renal ([2]; urine and plasma, inhaled or intranasal, CLr (Geometric Least Squares Mean, ANOVA), Impaired renal function (severe), single intranasal 160 mg cocaine HCl): 17.3 mL/min
CL renal ([2]; urine and plasma, inhaled or intranasal, CLr (Geometric Least Squares Mean, ANOVA), Normal renal function, single intranasal 160 mg cocaine HCl): 26.8 mL/min
CL renal ([2]; urine and plasma, inhaled or intranasal, Renal Clearance (geometric mean), normal renal function, single intranasal 160 mg cocaine HCl): 26.9 mL/min
CL renal ([2]; urine and plasma, inhaled or intranasal, Renal Clearance (geometric mean), severe renal impairment, single intranasal 160 mg cocaine HCl): 17.3 mL/min
CL renal ([2]; urine and plasma, inhaled or intranasal, Renal Clearance (mean), normal renal function, single intranasal 160 mg cocaine HCl): 33.3 mL/min
CL renal ([2]; urine and plasma, inhaled or intranasal, Renal Clearance (mean), severe renal impairment, single intranasal 160 mg cocaine HCl): 20.4 mL/min
CL renal ([2]; urine and plasma, inhaled or intranasal, Renal Clearance (median), normal renal function, single intranasal 160 mg cocaine HCl): 33.6 mL/min
CL renal ([2]; urine and plasma, inhaled or intranasal, Renal Clearance (median), severe renal impairment, single intranasal 160 mg cocaine HCl): 19.6 mL/min
CL renal ([2]; urine and plasma, inhaled or intranasal, Renal Clearance, CLr (mean), normal renal function, single intranasal 160 mg cocaine HCl): 33.3 mL/min
CL renal ([2]; urine and plasma, inhaled or intranasal, Renal Clearance, CLr (mean), severe renal impairment, single intranasal 160 mg cocaine HCl): 20.3 mL/min
CL renal ([2]; urine and plasma, inhaled or intranasal, Renal Clearance, CLr (median), normal renal function, single intranasal 160 mg cocaine HCl): 33.7 mL/min
CL renal ([2]; urine and plasma, inhaled or intranasal, Renal Clearance, CLr (median), severe renal impairment, single intranasal 160 mg cocaine HCl): 19.7 mL/min
0-32 h Urinary Recovery (geometric mean) [2, 5]: 122.8 µg
0-32 h Urinary Recovery (mean) [2, 5]: 164.2 µg
0-32 h Urinary Recovery (median) [2, 5]: 126.6 µg
0 to 32 hour urinary recovery (geometric mean) [2, 5]: 0.086 % of administered dose
0 to 32 hour urinary recovery (mean) [2, 5]: 0.115 % of administered dose
0 to 32 hour urinary recovery (median) [2, 5]: 0.089 % of administered dose
CLr, percent lower (reduction) than in normal subjects ([2]; severe renal impairment vs normal renal function): approximately 36%
CLr Ratio Impaired/Normal ([2]; severe renal impairment vs normal renal function, ANOVA): 64.33%
0-32 h Urinary Recovery (geometric mean) [2, 6]: 102.7 µg
0-32 h Urinary Recovery (mean) [2, 6]: 138.5 µg
0-32 h Urinary Recovery (median) [2, 6]: 89.8 µg
0 to 32 hour urinary recovery (geometric mean) [2, 6]: 0.072 % of administered dose
0 to 32 hour urinary recovery (mean) [2, 6]: 0.097 % of administered dose
0 to 32 hour urinary recovery (median) [2, 6]: 0.063 % of administered dose
AUClast Ratio Grade B/Normal ([3]; ANOVA): 284.54%
AUClast Ratio Grade C/Normal ([3]; ANOVA): 179.88%
CL/F Ratio Grade B/Normal (GMR) ([3]; ANOVA): 36.25%
CL/F Ratio Grade C/Normal (GMR) ([3]; ANOVA): 55.28%
Cmax Ratio Grade C/Normal ([3]; ANOVA): 68.13%
Cmax Ratio Grade B/Normal ([3]; ANOVA, excludes one outlier subject): 104.89%
AUClast, times higher than normal subjects ([3]; Grade B hepatic impairment): 2.8 times
CL/F (Geometric Least Squares Mean, ANOVA) ([3]; Grade B hepatic impairment): 629 L/h
CL/F, percent reduction vs normal ([3]; Grade B hepatic impairment): 64%
geometric mean Cmax, percent higher than normal ([3]; Grade B hepatic impairment, outlier excluded): 5%
geometric mean Cmax, percent higher than normal ([3]; Grade B hepatic impairment, outlier included): 56%
AUClast, times higher than normal subjects ([3]; Grade C hepatic impairment): 1.8 times
CL/F (Geometric Least Squares Mean, ANOVA) ([3]; Grade C hepatic impairment): 959 L/h
CL/F, percent reduction vs normal ([3]; Grade C hepatic impairment): 45%
geometric mean Cmax, percent lower than normal ([3]; Grade C hepatic impairment): 32%
CL/F (Geometric Least Squares Mean, ANOVA) ([3]; Normal hepatic function): 1735 L/h
geometric mean Cmax, percent lower than normal ([3]; all hepatically impaired individuals, outlier excluded): 7%
geometric mean Cmax, percent higher than normal ([3]; all hepatically impaired individuals, outlier included): 27%
AUC(0-t) ([3]; AUC0→t (Geometric mean), hepatic impairment): 189 ng·h/mL
AUC(0-t) ([3]; AUC0→t (Geometric mean), normal hepatic function): 79.2 ng·h/mL
AUC(0-t) ([3]; AUC0→t (Mean), hepatic impairment): 223 ng·h/mL
AUC(0-t) ([3]; AUC0→t (Mean), normal hepatic function): 92.8 ng·h/mL
AUC(0-t) ([3]; AUC0→t (Median), hepatic impairment): 176 ng·h/mL
AUC(0-t) ([3]; AUC0→t (Median), normal hepatic function): 82.4 ng·h/mL
AUC(0-inf) ([3]; AUC0→∞ (Geometric mean), hepatic impairment): 192 ng·h/mL
AUC(0-inf) ([3]; AUC0→∞ (Geometric mean), normal hepatic function): 82.4 ng·h/mL
AUC(0-inf) ([3]; AUC0→∞ (Mean), hepatic impairment): 227 ng·h/mL
AUC(0-inf) ([3]; AUC0→∞ (Mean), normal hepatic function): 95.3 ng·h/mL
AUC(0-inf) ([3]; AUC0→∞ (Median), hepatic impairment): 177 ng·h/mL
AUC(0-inf) ([3]; AUC0→∞ (Median), normal hepatic function): 83.3 ng·h/mL

From patent US10413505B1, “Pharmaceutical compositions and methods of using the same” (priority 2017, dated 2019)
